A short description of data set [1]: Clearance in Sprague-Dawley rat at 2 mg/kg, iv and 2 mg/kg, po. In kind it is ADME, organism-based. Particulars: in vivo.
The target in a further data set is hERG (KCNH2) (Homo sapiens, UniProt Q12809). In words: Displacement of dofetilide from human ERG at 10 uM. Conditions: probe dofetilide.
A short description of data set [2]: Inhibition of PDE11.
Data set [3] in a line: Half life in Sprague-Dawley rat at 2 mg/kg, iv and 2 mg/kg, po. Particulars: in vivo. In kind it is ADME, organism-based.
Data set [4] is described as follows: Bioavailability in Sprague-Dawley rat at 2 mg/kg, iv and 2 mg/kg, po. The data set is classed as ADME, organism-based. Conditions: in vivo.
Data set [5] can be described thus: Inhibition of PDE6.
Data set [6] in a line: Volume of distribution in Sprague-Dawley rat at 2 mg/kg, iv and 2 mg/kg, po. In kind it is ADME, organism-based. Conditions: in vivo.
The nature of data set [7]: Plasma protein binding in Sprague-Dawley rat at 2 mg/kg, iv and 2 mg/kg, po. The data set is classed as ADME, organism-based. Conditions: read-out: PPB (converted).
Data set [8] can be described thus: Aqueous solubility at pH 7.4. In kind it is physicochemical.
Data set [9] is described as follows: Metabolic stability in human liver microsomes assessed as compound remaining after 30 mins. Conditions: read-out: Stability. The data set is classed as ADME, Microsome.
In data set [10] the target is cGMP-specific 3',5'-cyclic phosphodiesterase (Homo sapiens, UniProt O76074). In words: Inhibition of PDE5.
A short description of data set [11]: Metabolic stability in human hepatocytes assessed as compound remaining after 30 mins. The data set is classed as ADME, cell-based, Hepatocyte. Particulars: read-out: Stability.
Data set [12] deals with Voltage-gated inwardly rectifying potassium channel KCNH2 (Homo sapiens, UniProt Q12809). The data set can be described thus: Inhibition of human ERG by patch-clamp electrophysiology assay.
The subject of another data set is Rattus norvegicus. In words: Antihypertensive activity in SHR rat assessed as reduction in systemic arterial blood pressure at 1.5 mg/kg, ip administered as single bolus dose measured for > 3 hrs. In kind it is functional, Artery. Particulars: route intraperitoneal.
Data set [13] can be described thus: Selectivity ratio of IC50 for PDE6 to IC50 for PDE5.
Data set [14] can be described thus: Selectivity ratio of IC50 for PDE11 to IC50 for PDE5.

The structures appear in SMILES notation. ≈ marks a conversion by molar mass, not a printed value.

Chain of hERG (KCNH2) (Q12809 whole entry): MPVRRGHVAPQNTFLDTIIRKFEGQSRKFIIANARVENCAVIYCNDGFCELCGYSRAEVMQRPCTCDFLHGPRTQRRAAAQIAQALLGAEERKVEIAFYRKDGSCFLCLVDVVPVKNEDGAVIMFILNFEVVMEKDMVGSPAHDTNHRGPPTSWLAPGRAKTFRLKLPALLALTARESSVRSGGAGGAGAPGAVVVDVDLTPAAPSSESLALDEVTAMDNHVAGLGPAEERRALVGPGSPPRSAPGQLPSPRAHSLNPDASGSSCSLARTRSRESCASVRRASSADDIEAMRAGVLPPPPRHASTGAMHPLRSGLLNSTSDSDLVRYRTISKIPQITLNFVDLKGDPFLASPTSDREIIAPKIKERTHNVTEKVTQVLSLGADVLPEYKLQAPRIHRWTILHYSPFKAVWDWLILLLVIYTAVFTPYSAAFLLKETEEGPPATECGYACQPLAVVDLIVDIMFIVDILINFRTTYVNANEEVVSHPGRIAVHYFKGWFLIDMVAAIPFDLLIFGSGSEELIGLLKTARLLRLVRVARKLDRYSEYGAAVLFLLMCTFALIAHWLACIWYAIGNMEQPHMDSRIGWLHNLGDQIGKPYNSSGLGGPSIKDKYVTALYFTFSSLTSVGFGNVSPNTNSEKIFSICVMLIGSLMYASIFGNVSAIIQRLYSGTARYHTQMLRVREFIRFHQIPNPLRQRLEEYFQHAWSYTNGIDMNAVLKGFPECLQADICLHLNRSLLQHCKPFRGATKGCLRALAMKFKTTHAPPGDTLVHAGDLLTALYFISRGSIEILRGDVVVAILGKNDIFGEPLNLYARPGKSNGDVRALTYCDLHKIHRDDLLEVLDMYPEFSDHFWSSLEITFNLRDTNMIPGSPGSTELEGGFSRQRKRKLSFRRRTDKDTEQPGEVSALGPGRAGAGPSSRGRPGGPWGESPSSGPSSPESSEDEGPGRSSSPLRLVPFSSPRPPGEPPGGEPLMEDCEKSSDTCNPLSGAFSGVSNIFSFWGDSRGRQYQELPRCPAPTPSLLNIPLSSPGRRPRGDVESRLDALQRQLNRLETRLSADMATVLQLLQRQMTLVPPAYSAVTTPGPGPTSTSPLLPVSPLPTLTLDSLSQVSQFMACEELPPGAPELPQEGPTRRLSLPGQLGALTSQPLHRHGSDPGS
Chain of Voltage-gated inwardly rectifying potassium channel KCNH2 (Q12809 whole entry): as above

One may read the inhibition as the drop in the measured response relative to a control, in per cent. The IC50 is the concentration that gives 50% inhibition. For orientation: half-life means the time in which the quantity being followed falls by half. A higher half-life goes with slow loss. By bioavailability is commonly meant dose-corrected exposure relative to a reference, in per cent. The low end stands for poor availability, the high end for good availability. A word on the solubility: it is how much of the substance goes into solution per volume. Higher therefore signals a readily soluble substance. For `CCCOCCn1c(=O)c(NCCN2CCOCC2)nc2ccc(-c3ccc(OC)nc3)nc21`, in data set [1], the clearance was determined as 67.6 mL/min/kg. 10 µM produced 14% inhibition at hERG (KCNH2). The IC50 turned out to be 1540 nM in data set [2] and 339 nM in data set [5]. In [3], this compound gave a half-life of 3.1 h. This compound displayed a bioavailability in data set [4] of 23%. The compound further gave a Vd in [6] of 8 L/kg. For the same compound, the fraction unbound in [7] was 0.104. The compound further gave a solubility in data set [8] of 4.6 µM (≈ 2.16 µg/mL). Also, in [9], the remaining at 0.5 h worked out at 10%.
Take `CCCOCCn1c(=O)c(NCCN2CCOCC2)nc2cnc(-c3ccc(OC)nc3)nc21`: the IC50 in data set [10] amounted to 1.21 nM; in [2], 1470 nM; in data set [5] it was 83 nM. At hERG (KCNH2), this compound had an inhibition at 10 µM of 15%. In addition, the solubility in data set [8] was 4.6 µM (≈ 2.16 µg/mL). Further, the remaining at 0.5 h in data set [9] was 22%.
As to `CCCOCCn1c(=O)c(NCCN2CCOCC2)nc2ccc(-c3ccc(OC)nc3)cc21`, the IC50 was 0.9 nM in data set [10], more than 1990 nM in data set [2] and 177 nM in data set [5]. Besides, the remaining at 0.5 h in data set [11] is 20%. For the same compound, on hERG (KCNH2), the inhibition at 10 µM was 43%.
As for `CCCOCCn1c(=O)c(NCCN2CCOCC2)nc2cnc(-c3ccc(OC)nc3)cc21`, the IC50 was 0.07 nM in [10], 346 nM in data set [2] and 11.3 nM in data set [5]. This compound had a clearance in data set [1] of 33.6 mL/min/kg. This compound gave an inhibition at 10 µM on hERG (KCNH2) of 23%. In data set [3], this compound gave a half-life of 3.2 h. The bioavailability in data set [4] was found to be 21%. The compound further displayed a Vd in data set [6] of 1.6 L/kg. The fraction unbound in data set [7] was 0.5. In [8], this compound showed a solubility of 18 µM (≈ 8.43 µg/mL). In data set [9], the remaining at 0.5 h was 38%.
Consider `CCCOCCn1c(=O)c(NCCN2CCOCC2)nc2ncc(-c3ccc(OC)nc3)cc21`, for which the IC50 in [10] is 0.34 nM; in data set [2] it was 1390 nM; in [5], 61.8 nM. The same compound showed a clearance in data set [1] of 178 mL/min/kg. At hERG (KCNH2), this compound gave an inhibition at 10 µM of 34%. For the same compound, the “inhibition (INH)” value in data set [12] was 34%. Moreover, the half-life in [3] was 3.4 h. Also, the Activity with Rattus norvegicus stood at 25 mmHg. This compound also displayed a Vd in data set [6] of 18.8 L/kg. Further, the fraction unbound in [7] was 0.235. In addition, the solubility in data set [8] was found to be 46 µM (≈ 21.6 µg/mL). Further, the remaining at 0.5 h in [9] came out at 18%.
For the compound `CCCOCCn1c(=O)c(NCCN2CCOCC2)nc2ncc(-c3ccc(OC)nc3)nc21`, the Ratio IC50 was less than 30 in data set [13] and 335 in [14]. The IC50 was 1.21 nM in data set [10], 3560 nM in [2] and 297 nM in data set [5]. In data set [1], this compound yielded a clearance of 151 mL/min/kg. For the same compound, on hERG (KCNH2), at 10 µM the inhibition was 11%. In addition, in data set [3], the half-life is 0.6 h. The same compound returned a Vd in [6] of 5.2 L/kg. Moreover, the fraction unbound in [7] is 0.088. In addition, in data set [9], the remaining at 0.5 h stood at 12%.

For the origin of these results see ChEMBL document CHEMBL1152381, “Investigation of aminopyridiopyrazinones as PDE5 inhibitors: Evaluation of modifications to the central ring system” (Bioorg Med Chem Lett, 2009).
